{"source": "patent US5994365A", "about": "“Substituted diazaanthracene compounds having pharmaceutical utility” (Diazans Limited, priority 1998, dated 1999)", "key": {"[1]": {"system": "Coagulase negative Staph (Staneg)", "experiment": "Broth microdilution (NCCLS guidelines), MIC", "assay_type": "cell-based, Coagulase negative staphylococci", "conditions": "for MIC50 / MIC90 / Range of MICs: 10 strains", "protocol": "(§1) The dimer product of Example 15 was obtained in powder form. A stock solution of 1280 mg/L of the dimer in dimethylsulfoxide (DMSO) was prepared and stored at room temperature in a foil-wrapped screw-capped tube (10 ml). Subsequent dilutions were prepared using cation-adjusted Mueller-Hinton broth (50 mg/L Mg). […] It was resuspended upon mixing each time an aliquot was taken from the solution.\n(§2) Approximately 100 varied bacterial isolates were initially collected for screening, along with 9 ATCC organisms. Forty additional strains of Staphylococcus species were subsequently screened. All isolates were identified according to generally accepted lab protocol.\n(§3) Broth microdilution was performed according to NCCLS guidelines. Microdilution panels were prepared using doubling dilutions of the dimer in ~250 μl plastic, 96-well trays. Inoculum suspension equal to a 0.5 McFarland standard were further diluted and added to the microdilution trays to achieve a final inoculum of 5×10^5 CFU/ml (5×10^4 CFU/well). Colony counts were performed to confirm the final inoculum, as well as its purity. Each strain was also tested in a growth control well containing only MHB for viability.\n(§4) Microdilution trays were incubated at 35° C. in ambient air or 5% CO2 as appropriate for 16-20 hours. After incubation, the minimal inhibitory concentration (MIC) was defined as the lowest concentration of the dimer with no evidence of growth. Since 10 or more strains of most organisms were tested; a range of MICs was determined for each organism, as well as the concentration of the dimer that inhibited 50% of the strains (MIC50) and the concentration of the dimer that inhibited 90% of the strains (MIC90)."}, "ATCC S. epid 14990": {"system": "ATCC S. epid 14990", "experiment": "Broth microdilution (NCCLS guidelines), MIC", "assay_type": "cell-based", "conditions": "for MICs: in µg/mL", "protocol": "as §1, §2, §3, §4"}, "Enterobacteriaceae": {"system": "Enterobacteriaceae", "experiment": "Broth microdilution (NCCLS guidelines), MIC", "assay_type": "cell-based", "conditions": "Table A, 10 strains", "protocol": "as §1, §2, §3, §4"}, "Acinetobacter": {"system": "Acinetobacter", "experiment": "Broth microdilution (NCCLS guidelines), MIC", "assay_type": "cell-based", "conditions": "Table A, 5 strains", "protocol": "as §1, §2, §3, §4"}, "S. aureus ATCC 25923": {"system": "S. aureus ATCC 25923", "experiment": "Microbroth dilution assay of antimicrobial susceptibility (MIC)", "assay_type": "cell-based, Staphylococcus aureus", "conditions": "microdilution, CAMHB, 37° C., 18 hrs", "protocol": "It is described below, using E. coli ATCC® 25922, S. aureus ATCC® 25923, and P. aeruginosa ATCC® 27853. Prepare 0.0128 g DAA in 10 mL dH2 O (or 95% EtOH, methanol or DMSO if H2 O insoluble)=1280 μg/mL (stock solution). Dilute DAA stock solution 1:10 with CAMHB (Cation-Adjusted Mueller Hinton Broth): 0.5 mL DAA stock solution+4.5 mL CAMHB=128 μg/mL (DAA working solution). Pipette 100 μl of sterile CAMHB per well into columns 2-12 of rows A-G using Eppendorf repeater pipette. Pipette 100 μl per well of sterile-filtered DAA working solution into columns 1 and 2 of rows A, C, E, G using Jensen electric pipette. Mix and transfer 100 μl from column 2 to 3 of rows A, C, E, G using Jensen pipette. Repeat to column 12 then discard 100 μl from column 12. Rows B, D and F are positive growth control lanes for each organism and contain only CAMHB and the organism--no DAA. Row H is the media additive control lane, if necessary (e.g. MeOH, EtOH, DMSO etc.). The concentration of the media additive is obtained by doing a 1:10 dilution of the additive with CAMHB (0.5 mL additive+4.5 mL CAMHB). Row G is considered to be \"negative growth control\" and is loaded with only CAMHB and the DAA. Inoculate 0.5 mL TSB (Trypticase Soy Broth) tubes with 3 single colonies each of E. coli, S. aureus, and P. Aeruginosa from TSA plates using sterile needle. Incubate @ 37° C. for 4-6 hr. Measure out 100 mL CAMHB using the sterile 100 mL volumetric flask. Pour the excess into a sterile reagent reservoir. Pipette 0.5 mL and discard, leaving 99.5 mL in each of the 3-Erlenmeyer flasks. Set aside. Use the excess CAMHB for the 1:10 dilution of inoculum: 0.5 mL inoculum+4.5 mL CAMHB. Perform a 1:200 dilution of inoculum: 0.5 mL of 1:10 diluted inoculum+99.5 mL CAMHB from previous step. Pipette 100 μl (using Eppendorf repeater pipette) E. coli into each well in columns 1-12 of rows A and B and columns 1-4 of row H (if media additive control lane necessary). Pipette 100 μl P. aeruginosa into each well in columns 1-12 of rows C and D and columns 5-8 of row H (if media additive control lane is necessary). Pipette 100 μl S. aureus into each well in columns 1-12 of rows E and F and columns 9-12 of row H (if media additive control lane is necessary). Incubate microtiter plates @ 37° C. for 18 hrs. The lowest concentration of antimicrobial agent that results in significant inhibition of visible growth represents the MIC (Minimal Inhibitory Concentration)."}, "[2]": {"experiment": "Precipitation of the dimer on dilution with Mueller-Hinton broth", "assay_type": "physicochemical", "conditions": "resuspended upon mixing", "protocol": "as §1"}, "[3]": {"system": "Methicillin-resistant Staph aureus (MRSA)", "experiment": "Broth microdilution (NCCLS guidelines), MIC", "assay_type": "cell-based, Staphylococcus aureus", "protocol": "as §1, §2, §3, §4"}, "[4]": {"conditions": "Table C, 10 strains, solution 14 days old"}, "[5]": {"conditions": "Table E, 10 strains, fresh solution"}}, "note": "Where “and” joins values, the source holds several entries; their conditions need not be identical. Identical values can stand only once."}
{"substance": "10,10'-bis(3,6-dimethyl-5,10-dihydro-1,8-diazaanthracen-5-one) and 5,5'-bis(3,6-dimethyl-5,10-dihydro-1,8-diazaanthracen-10-one) [Example 15]", "values": [{"measurement": "MIC50", "setting": "[1]; Table A", "value": 0.125, "unit": "µg/mL"}, {"measurement": "MIC90", "setting": "[1]; Table A", "value": 0.5, "unit": "µg/mL"}, {"measurement": "Range of MICs", "setting": "[1]; Table A", "value": ".0625 to 1.0 mg/L"}, {"measurement": "MIC50", "setting": "[1]; Table C, solution 14 days old", "value": 1, "unit": "µg/mL"}, {"measurement": "MIC90", "setting": "[1]; Table C, solution 14 days old", "value": 2, "unit": "µg/mL"}, {"measurement": "MIC", "setting": "[1]; Table D, Staneg 1", "value": 2, "unit": "µg/mL"}, {"measurement": "MIC", "setting": "[1]; Table D, Staneg 2", "value": 0.25, "unit": "µg/mL"}, {"measurement": "MIC", "setting": "[1]; Table D, Staneg 3", "value": 2, "unit": "µg/mL"}, {"measurement": "MIC", "setting": "[1]; Table D, Staneg 4", "value": "> 16", "unit": "µg/mL"}, {"measurement": "MIC", "setting": "[1]; Table D, Staneg 5", "value": 1, "unit": "µg/mL"}, {"measurement": "MIC", "setting": "[1]; Table D, Staneg 6", "value": 1, "unit": "µg/mL"}, {"measurement": "MIC", "setting": "[1]; Table D, Staneg 7", "value": 1, "unit": "µg/mL"}, {"measurement": "MIC", "setting": "[1]; Table D, Staneg 8", "value": 1, "unit": "µg/mL"}, {"measurement": "MIC50", "setting": "[1]; Table E, fresh solution", "value": 0.25, "unit": "µg/mL"}, {"measurement": "MIC90", "setting": "[1]; Table E, fresh solution", "value": 0.5, "unit": "µg/mL"}, {"measurement": "Range of MICs", "setting": "[1]; Table E, fresh solution, in µg/mL", "value": "0.0625-4"}, {"measurement": "MIC", "setting": "[1]; Table F, Staneg 1", "value": 0.0625, "unit": "µg/mL"}, {"measurement": "MIC", "setting": "[1]; Table F, Staneg 4", "value": 4, "unit": "µg/mL"}, {"measurement": "MIC", "setting": "[1]; Table F, Staneg 7", "value": 0.25, "unit": "µg/mL"}, {"measurement": "MIC50", "setting": "[1]; Table G", "value": 0.25, "unit": "µg/mL"}, {"measurement": "MIC90", "setting": "[1]; Table G", "value": ".5 µg/mL"}, {"measurement": "Range of MICs", "setting": "[1]; Table G", "value": "0.0625 to 4", "unit": "mg/L"}, {"measurement": "MICs", "setting": "ATCC S. epid 14990; Table C, ATCC S. epid 14990 (×2), solution 14 days old", "value": 0.25}, {"measurement": "MICs", "setting": "ATCC S. epid 14990; Table E, ATCC S. epid 14990, fresh solution, * = skipped wells (second value), listed as Dimer", "value": "0.3125 and 0.5"}, {"measurement": "MIC", "setting": "ATCC S. epid 14990; Table F, ATCC S. epid 14990", "value": 0.0312, "unit": "µg/mL"}, {"measurement": "MIC", "setting": "ATCC S. epid 14990; Table G footnote, ATCC 14990 (coag neg staph)", "value": 0.0312, "unit": "µg/mL"}, {"measurement": "MIC50", "setting": "Enterobacteriaceae", "value": "> 64", "unit": "µg/mL"}, {"measurement": "MIC90", "setting": "Enterobacteriaceae", "value": "> 64", "unit": "µg/mL"}, {"measurement": "Range of MICs", "setting": "Enterobacteriaceae", "value": "> 64", "unit": "mg/L"}, {"measurement": "MIC50", "setting": "Acinetobacter", "value": "> 64", "unit": "µg/mL"}, {"measurement": "MIC90", "setting": "Acinetobacter", "value": "> 64", "unit": "µg/mL"}, {"measurement": "Range of MICs", "setting": "Acinetobacter", "value": "> 64", "unit": "mg/L"}, {"measurement": "MIC", "setting": "S. aureus ATCC 25923", "value": 0.0625, "unit": "µg/mL"}, {"measurement": "precipitation", "setting": "[2]; at 128 mg/L in MHB", "value": "Some precipitation occurred at 128 mg/L"}, {"measurement": "precipitation upon dilution with MH broth", "setting": "[2]; from 1280 mg/L DMSO stock, after sitting for short periods", "value": "some precipitation upon dilution with MH broth"}, {"measurement": "MIC50", "setting": "[3]; Table A, 12 strains", "value": 0.5, "unit": "µg/mL"}, {"measurement": "MIC90", "setting": "[3]; Table A, 12 strains", "value": 1.0, "unit": "µg/mL"}, {"measurement": "Range of MICs", "setting": "[3]; Table A, 12 strains", "value": "0.25 to 1.0", "unit": "mg/L"}, {"measurement": "MIC", "setting": "[3]; Table A, ATCC MRSA 33591", "value": 0.5, "unit": "µg/mL"}, {"measurement": "MIC50", "setting": "[3]; [4]", "value": "> 16", "unit": "µg/mL"}, {"measurement": "MIC90", "setting": "[3]; [4]", "value": "> 16", "unit": "µg/mL"}, {"measurement": "Range of MICs", "setting": "[3]; Table C, 10 strains, solution 14 days old, in µg/mL", "value": "> 16"}, {"measurement": "MICs", "setting": "[3]; Table C, ATCC MRSA 33591, solution 14 days old, listed as Dimer, in µg/mL", "value": "8 and 16"}, {"measurement": "MIC50", "setting": "[3]; [5]", "value": 2, "unit": "µg/mL"}, {"measurement": "MIC90", "setting": "[3]; [5]", "value": 8, "unit": "µg/mL"}, {"measurement": "Range of MICs", "setting": "[3]; Table E, 10 strains, fresh solution, in µg/mL", "value": "0.5-8"}, {"measurement": "MICs", "setting": "[3]; Table E, ATCC MRSA 33591 (×2), fresh solution, in µg/mL", "value": 1.0}, {"measurement": "MIC", "setting": "[3]; Table F, MRSA 2", "value": 8, "unit": "µg/mL"}, {"measurement": "MIC", "setting": "[3]; Table F, MRSA 4", "value": 2, "unit": "µg/mL"}, {"measurement": "MIC", "setting": "[3]; Table F, MRSA 6", "value": 0.5, "unit": "µg/mL"}, {"measurement": "MIC50", "setting": "[3]; Table G, 10 strains", "value": 2, "unit": "µg/mL"}, {"measurement": "MIC90", "setting": "[3]; Table G, 10 strains", "value": 8, "unit": "µg/mL"}, {"measurement": "Range of MICs", "setting": "[3]; Table G, 10 strains", "value": "0.5 to 8", "unit": "mg/L"}]}
